Source: patent US20260055117A1, “SUBSTITUTED PYRIDONE GPR84 ANTAGONISTS AND USES THEREOF” (Liminal BioSciences Limited, priority 2022, published 2026)

Target: T1, human GPR84 receptor (Homo sapiens, UniProt Q9NQS5)
T1 construct: host or cells: HEK293, transiently transfected
Assay: Gαi biosensor BRET assay (GPR84 antagonism vs agonist ZQ-16)
Type: cell-based
Conditions: HEK293 cells, 200 nmol/L agonist ZQ-16; for IC50: Gαi biosensor BRET assay; for inhibition at 2 µM: tested at 2 μM (concentration code A); for inhibition at 10 µM: tested at 10 μM (concentration code D)
Source text: Background—The following assays can be used for determination of GPR84 activation in living HEK293 cells. The Gai BRET biosensor (Gagnon et al., 2018; Gales et al., 2006. Nat Struct Mol Biol. 13, 778-86; Saulieres et al., 2012. Nat Chem Biol. 8, 622-30) allows to directly monitor GPR84-mediated activation of Gai. The Gai biosensor consists of a Rluc8-tagged Gai2 subunit, a GFP10-tagged Gy2 subunit, and an untagged GB1. Agonist stimulation and GPR84 activation triggers a physical separation between the RLuc8-Gai donor and the GFP10-Gy2 acceptor, resulting in a decrease in BRET signal whose amplitude is correlated to ligand efficacy (Gales et al., 2006). Moreover, signaling functions of GPCRs are tightly regulated by endocytosis, the targeting of receptors to endosomes and their sorting to lysosomes or recycling to the plasma membrane. The early endosomes (EEs) trafficking assay (Namkung et al., 2016. Nat Commun. 7, 12178) uses Rluc8-tagged GPR84 and Renilla GFP (rGFP) attached to the FYVE domain from human endofin/zinc finger FYVE domain-containing protein 16, which binds phosphatidylinositol 3-phosphate in EEs. Agonist stimulation of GPR84-Rluc8 leads to trafficking of the receptor to EEs, and ensuing increase of the donor concentration relative to the rGFP-FYVE acceptor anchored in the same cellular compartment, and thus results in an increase in BRET signal.
Plasmids—The cDNA clones for human GPR84 receptor, human Gai2, GB1, and Gy2 were obtained from the cDNA Resource Center (www.cdna.org). GFP10 (F64L, S147P, S202F and H231L variant of Aequorea victoria Green Fluorescent Protein) gBlocks gene fragments (Integrated DNA Technologies, IA) and linker were inserted in frame at the N-terminus of human Gy2. Rluc8 (A55T, C124A, S130A, K136R, A143M, M185V, M253L, and S287L variant of the Renilla reniformis luciferase) gBlocks gene fragment was inserted with linkers in frame in between residues 91 and 92 of Gai2 or at the C-terminus of GPR84. The FYVE domain from human endofin (residues Q739 to K806) attached in frame at the C terminus of a humanized Renilla GFP (rGFP), were synthesized as gBlocks gene fragments.
Bioluminescence Resonance Energy Transfer (BRET) Measurement-HEK293 cells were transfected with GPR84-Rluc8 and rGFP-FYVE for the EEs trafficking biosensor or with GPR84, Gai2-Rluc8, GFP10-Gy2, and GB1 for the Ga; biosensor. The following day, transiently transfected cells were seeded in 96-well white clear bottom microplates coated with poly-D-lysine and left in culture for 24 hours. Cells were washed once with Tyrode's buffer (140 mmol/L NaCl, 1 mmol/L CaCl2), 2.7 mmol/L KCl, 0.49 mmol/L MgCl2, 0.37 mmol/L NaH2PO4, 5.6 mmol/L glucose, 12 mmol/L NaHCO3, and 25 mmol/L HEPES, pH 7.5) before performing assays in Tyrode's buffer. Test compounds were incubated with cells for 5 (Gai) or 15 (EEs) minutes at 37° C. before addition of 200 nmol/L of the GPR84 agonist ZQ-16 (2-(Hexylthio)-6-hydroxy-4 (3H)-pyrimidinone) for 5 minutes at room temperature (Gai) or 30 minutes at 37° C. (EEs). The Rluc8 substrate coelenterazine 400A (Prolume, Lakeside, A Z) was added at a final concentration of 5 μmol/L and BRET readings were collected using an Infinite M1000 microplate reader (Tecan, Morrisville, N C). BRET2 readings between Rluc8 and GFP10 or rGFP were collected by sequential integration of the signals detected in the 370 to 450 nm (Rluc8) and 510 to 540 nm (GFP10, rGFP) windows. The BRET signal was calculated as the ratio of light emitted by acceptor (GFP10, rGFP) over the light emitted by donor (Rluc8). The values were corrected to net BRET by subtracting the background BRET signal obtained in cells transfected with Rluc8 constructs alone. Ligand-promoted net BRET values were calculated by subtracting vehicle-induced net BRET from ligand-induced net BRET.

T1 sequence (Q9NQS5 whole entry): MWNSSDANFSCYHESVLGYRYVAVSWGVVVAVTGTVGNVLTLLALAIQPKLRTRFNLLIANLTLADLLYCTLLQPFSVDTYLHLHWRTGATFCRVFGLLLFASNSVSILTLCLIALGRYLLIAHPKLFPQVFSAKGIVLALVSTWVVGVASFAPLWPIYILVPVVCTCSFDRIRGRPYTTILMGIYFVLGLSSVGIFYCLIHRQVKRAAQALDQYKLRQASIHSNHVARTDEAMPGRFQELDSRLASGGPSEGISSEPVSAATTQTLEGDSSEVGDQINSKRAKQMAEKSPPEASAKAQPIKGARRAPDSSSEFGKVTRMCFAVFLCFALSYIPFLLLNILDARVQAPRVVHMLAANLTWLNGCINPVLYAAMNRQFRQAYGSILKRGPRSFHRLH

| Structure (SMILES) | IC50 [nM] | inhibition at 2 µM [%] | inhibition at 10 µM [%] |
| --- | --- | --- | --- |
| Cc1cc(OCC(=O)N2CC[C@@H](O)C2)cc(=O)n1[C@H](C)c1ccc(C#CC2CC2)cc1 [Compound I-241] | ≤ 300 | > 75 |  |
| Cc1cc(OCC(=O)N2CC(C)(C)C2)cc(=O)n1[C@H](C)c1ccc(C#CC2CC2)cc1 [Compound I-342] | 300 to 1000 |  | > 75 |
| Cc1cc(OCC(=O)N(C)CC(C)C)cc(=O)n1[C@H](C)c1ccc(C#CC2CC2)cc1 [Compound I-65] | ≤ 300 |  | > 75 |
| Cc1nc(OCC(=O)N2CCCC2)cc(=O)n1[C@@H](C)c1ccc(C#CC2CC2)cc1 [Compound I-236] |  |  | 25 to 50 |
| Cc1cc(OCc2nnnn2C2CC2)cc(=O)n1[C@H](C)c1ccc(C#CC2CC2)cc1 [Compound I-331] |  | > 75 |  |
| COc1ccc([C@H](C)n2c(C)cc(C#CC3CC3)cc2=O)cc1 [Compound I-239] |  | < 25 |  |
| Cc1cc(OCC(=O)NC2CN(C)C2)cc(=O)n1[C@H](C)c1ccc(C#CC2CC2)cc1 [Compound I-58] |  |  | 50 to 75 |
| Cc1cc(OCC(=O)N2CCC[C@H]2CO)cc(=O)n1[C@H](C)c1ccc(C#CC2CC2)cc1 [Compound I-248] | ≤ 300 | > 75 |  |
| Cc1cc(OCC(=O)N(C)C)cc(=O)n1[C@H](C)c1ccc(C#CC2CC2)c(C#N)c1 [Compound I-34] | ≤ 300 | > 75 |  |
| Cc1cc(OCC(=O)N2CCC[C@@H]2C2CC2)cc(=O)n1[C@H](C)c1ccc(C#CC2CC2)cc1 [Compound I-307] | ≤ 300 | > 75 |  |
| Cc1cc(OCC(=O)N(C)C(C)C)cc(=O)n1[C@H](C)c1ccc(C#CC2CC2)cc1 [Compound I-55] | ≤ 300 |  | > 75 |
| Cc1cc(OCC(=O)N(C)C)cc(=O)n1[C@H](C)c1ccc(C#CC2CC2)c(O)c1 [Compound I-72] | 300 to 1000 |  | > 75 |
| Cc1cc(OCC(=O)N2CC3CCC(C2)O3)cc(=O)n1[C@H](C)c1ccc(C#CC2CC2)cc1 [Compound I-325] | ≤ 300 | > 75 |  |
| Cc1cc(OCC(=O)N2CC3CCC2CO3)cc(=O)n1[C@H](C)c1ccc(C#CC2CC2)cc1 (some centres unmarked) [Compound I-326] | 1000 to 3000 |  | > 75 |
| Cc1cc(OCC(=O)N2CC[C@@H](C#N)C2)cc(=O)n1[C@H](C)c1ccc(C#CC2CC2)cc1 [Compound I-309] | ≤ 300 | > 75 |  |
| Cc1cc(OCC(O)C(C)(C)C)cc(=O)n1[C@H](C)c1ccc(C#CC2CC2)cc1 (some centres unmarked) [Compound I-276] | 300 to 1000 |  | > 75 |
| Cc1cc(OCC(=O)N2CC3CC3C2)cc(=O)n1[C@H](C)c1ccc(C#CC2CC2)cc1 (some centres unmarked) [Compound I-284] | ≤ 300 | > 75 |  |
| CCc1cc([C@@H](C)n2c(C)cc(OCC(=O)N(C)C)cc2=O)ccc1C#CC1CC1 [Compound I-39] | ≤ 300 | > 75 |  |
| Cc1cc(OCC(=O)N(C)C2CN(C)C2)cc(=O)n1[C@H](C)c1ccc(C#CC2CC2)cc1 [Compound I-59] |  |  | > 75 |
| Cc1cc(OCC(=O)N2CCC2)cc(=O)n1[C@H](C)c1ccc(C#CC2CC2)cc1 [Compound I-1, (R)-4-(2-(azetidin-1-yl)-2-oxoethoxy)-1-(1-(4-(cyclopropylethynyl)phenyl)ethyl)-6-methylpyridin-2 (1H)-one] | ≤ 300 | > 75 |  |
| Cc1cc(OCC(=O)NC2CC(F)(F)C2)cc(=O)n1[C@H](C)c1ccc(C#CC2CC2)cc1 [Compound I-51] |  |  | 50 to 75 |
| Cc1cc(OCc2ncccn2)cc(=O)n1[C@H](C)c1ccc(C#CC2CC2(F)F)cc1 (some centres unmarked) [Compound I-62] |  |  | 50 to 75 |

| Structure (SMILES) | IC50 [nM] | inhibition at 2 µM [%] | inhibition at 10 µM [%] |
| --- | --- | --- | --- |
| Cc1cc(OCC(=O)N(C)C)cc(=O)n1[C@H](C)c1ccc(C#CC(=O)O)cc1 [Compound I-264] |  |  | < 25 |
| Cc1cc(OCC(=O)N2CC3(CCC3)C2)cc(=O)n1[C@H](C)c1ccc(C#CC2CC2)cc1 [Compound I-282] | ≤ 300 | > 75 |  |
| Cc1cc(OCC(=O)NC2CNC2)cc(=O)n1[C@H](C)c1ccc(C#CC2CC2)cc1 [Compound I-69] |  |  | 25 to 50 |
| Cc1cc(OCC(=O)N(C)C)c(Br)c(=O)n1[C@H](C)c1ccc(C#CC2CC2)cc1 [Compound I-317] |  |  | 50 to 75 |
| Cc1cc(OCC(=O)N(C)C)cc(=O)n1[C@H](C)c1ccc(C#CC2CC2)c(Cl)c1 [Compound I-29] | ≤ 300 | > 75 |  |
| Cc1cc(OCc2ncccn2)cc(=O)n1[C@H](C)c1ccc(C#CC2(C(F)(F)F)CC2)c(F)c1 [Compound I-53] |  |  | 50 to 75 |
| Cc1cc(OCC(=O)NC2CCN(C)CC2)cc(=O)n1[C@H](C)c1ccc(C#CC2CC2)cc1 [Compound I-43] |  |  | 50 to 75 |
| Cc1cc(OCC(=O)N2CC[C@H](C(=O)O)[C@H]2C)cc(=O)n1[C@H](C)c1ccc(C#CC2CC2)cc1 [Compound I-304] | ≤ 300 |  | > 75 |
| Cc1cc(OCC(=O)N(C(C)C)C(C)C)cc(=O)n1[C@H](C)c1ccc(C#CC2CC2)cc1 [Compound I-347] | 300 to 1000 |  | > 75 |
| Cc1cc(OCC(=O)N2CC[C@H](F)C2)cc(=O)n1[C@H](C)c1ccc(C#CC2CC2)cc1 [Compound I-244] | ≤ 300 | > 75 |  |
| COC(=O)COc1cc(C)n([C@H](C)c2ccc(C#CC3CC3)cc2)c(=O)c1 [Compound I-22] |  |  | > 75 |
| Cc1cc(OCC(=O)N2CCC[C@H]2C#N)cc(=O)n1[C@H](C)c1ccc(C#CC2CC2)cc1 [Compound I-305] | ≤ 300 | > 75 |  |
| Cc1cc(OCC(=O)N2CC[C@@H](C3CC3)C2)cc(=O)n1[C@H](C)c1ccc(C#CC2CC2)cc1 [Compound I-311] |  | > 75 |  |
| COCCNC(=O)COc1cc(C)n([C@H](C)c2ccc(C#CC3CC3)cc2)c(=O)c1 [Compound I-349] |  |  | > 75 |
| Cc1cc(OCC(=O)NCC(C)C)cc(=O)n1[C@H](C)c1ccc(C#CC2CC2)cc1 [Compound I-49] |  |  | > 75 |
| Cc1cc(OCC(=O)N2CC[C@H](S(=O)(=O)N(C)C)C2)cc(=O)n1[C@H](C)c1ccc(C#CC2CC2)cc1 [Compound I-333] | 1000 to 3000 |  | > 75 |
| Cc1cc(OCc2cnc(NS(=O)(=O)C(F)(F)F)nc2)cc(=O)n1[C@H](C)c1ccc(C#CC2CC2)cc1 [Compound I-82] | ≤ 300 | > 75 |  |
| Cc1cc(OCC(=S)N(C)C)cc(=O)n1[C@H](C)c1ccc(C#CC2CC2)cc1 [Compound I-279] |  | > 75 |  |
| Cc1cc(OCC2(N(C)C)CC2)cc(=O)n1[C@H](C)c1ccc(C#CC2CC2)cc1 [Compound I-30] |  |  | 50 to 75 |
| Cc1cc(OCc2ncccn2)cc(=O)n1[C@H](C)c1ccc(C#CC2(C)CC2)cc1 [Compound I-77] |  |  | 50 to 75 |
| Cc1cc(OCC(=O)N2CCC[C@@H]2C(F)(F)F)cc(=O)n1[C@H](C)c1ccc(C#CC2CC2)cc1 [Compound I-254] | ≤ 300 | > 75 |  |
| Cc1cc(OCc2ncccn2)cc(=O)n1[C@H](C)c1ccc(-c2cnc(C3CC3)cn2)c(F)c1 [Compound I-10] |  |  | < 25 |
